Legend:
Southern Armyworm = assay: Protocol 1 Southern Armyworm (AW) foliar spray test; type: in vivo, Spodoptera eridania
Description: (§1) A test solution containing 1250 parts per million (ppm) was prepared by dissolving the test compound in […] of a second solvent (acetone: water, 1:1) to give an acetone:water: methanol system of 50: 40:10.
(§2) The enclosed spraying chamber consisted of a single spray nozzle mounted on a boom moving at a fixed speed and distance over stationary targets. The vertical distance from the nozzle tip to the targets was adjusted to give rates varying from 150 g/ha to 600 g/ha
Individual fully expanded primary lima bean (Phaseolus limensis) leaves were placed bottom side up on moistened pieces of filter paper in Petri dishes. The leaves were sprayed with the test solutions and allowed to dry. The dishes were infested with 5 third instar larvae of the southern armyworm, covered with the lids, and held at 27° C. Armyworm control was rated by visual inspection after 48 hours. […] A rating of 0 indicated no dead larvae and normal feeding. Intermediate control was indicated by intermediate ratings.

Mexican Bean Beetle = assay: Protocol 1 Mexican Bean Beetle (BB) foliar spray test; type: in vivo, Epilachna verivestis; conditions: control rated after 48 hours (100 = all larvae dead)
Description: as §1, §2
Individual fully expanded primary lima bean (Phaseolus limensis) leaves were placed bottom side up on moistened pieces of filter paper in Petri dishes. The leaves were sprayed with the test solutions and allowed to dry. The dishes were infested with 5 third instar larvae of the mexican bean beetle, covered with the lids, and held at 27° C. Bean beetle control was rated by visual inspection after 48 hours. […] A rating of 0 indicated no dead larvae and normal feeding. Intermediate control was indicated by intermediate ratings.

Two-Spotted Spider Mite = assay: Protocol 1 Two-Spotted Spider Mite (MTA) foliar spray test; type: in vivo, Tetranychus urticae; conditions: percentage of mites killed 1-day post-treatment
Description: as §1, §2
A pad of moistened cotton was placed in a Petri dish. A 1-inch square section cut from a fully expanded primary lima bean (Phaseolus limensis) leaf was positioned bottom side up on the moist cotton. The leaf square was infested with approximately 50 adult female mites. The dishes were sprayed with the test solutions and held at 27° C. for mortality determination 1-day post-treatment. The percentage of mites killed were rated from 100% (all dead) to 0% (all alive).

Sphaerotheca fuliginea = assay: Cucumber Powdery Mildew (CPM) protectant test in the greenhouse; type: in vivo; conditions: 100 is total disease control, 0 is no disease control; for Cucumber Powdery Mildew (CPM) protectant fungicide data, percent control: 300 g/ha; for pest or weed control at 300 g/ha: Podosphaera fuliginea, topical, 168 h, read-out: Cucumber Powdery Mildew (CPM) protectant fungicide data, percent control
Outline: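 Protectant format: one day after spraying with test compound (A/M/W 1:1:2), cotyledon-plus-one-leaf cucumber plants were misted with Sphaerotheca spores at 2×10^5/ml. Greenhouse disease development; percent control scored at day 7 (100 = total, 0 = none).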

Pyricularia oryzae = assay: whole plant or invertebrate; type: in vivo; conditions: 100 is total disease control, 0 is no disease control; for Rice Blast (RB) protectant fungicide data, percent control: 300 g/ha, greenhouse; for pest or weed control at 300 g/ha: Pyricularia oryzae, topical, 144 h, read-out: Rice Blast (RB) protectant fungicide data, percent control, protectant, 300 g/ha, greenhouse

Row | SMILES | AW (Southern Armyworm; Protocol 1, DOSE 300) | BB (Mexican Bean Beetle; Protocol 1, DOSE 300) | MTA (Two-Spotted Spider Mite; Protocol 1, DOSE 300) | Cucumber Powdery Mildew (CPM) protectant fungicide data, percent control (Sphaerotheca fuliginea) | Rice Blast (RB) protectant fungicide data, percent control (Pyricularia oryzae) | AW (Southern Armyworm; Protocol 1, DOSE 150) | BB (Mexican Bean Beetle; Protocol 1, DOSE 150) | MTA (Two-Spotted Spider Mite; Protocol 1, DOSE 150) | pest or weed control at 300 g/ha (Sphaerotheca fuliginea) | pest or weed control at 300 g/ha (Pyricularia oryzae) | AW (Southern Armyworm; Protocol 1, DOSE 600)
1 | Cn1nc(-c2ccccc2)ncc1=O [compound 242] | 0 | 90 | 100% |  |  |  |  |  |  |  | 
2 | O=c1cnc(C2CCCCC2)nn1CC(F)(F)F [Compound 251] |  |  |  | 0 percent control | 75 percent control | 0 | 50 | 75% |  |  | 
3 | CCCC(C)n1nc(-c2ccc(Cl)cc2)ncc1=O (stereo not shown) [Compound 254] |  |  |  | 0 percent control | 95 percent control | 0 | 100 | 100% |  |  | 
4 | CCn1nc(-c2ccc(Cl)cc2)ncc1=O [Compound 235] | 0 | 100 | 100% | 80 percent control | 90 percent control |  |  |  |  |  | 
5 | CCC(C)n1nc(C2CCCCC2)ncc1=O (stereo not shown) [Compound 255] |  |  |  | 0 percent control | 50 percent control | 0 | 90 | 100% |  |  | 
6 | COc1cccc(-c2ncc(=O)n(CC(F)(F)F)n2)c1 [Compound 252] |  |  |  | 0 percent control | 85 percent control | 0 | 100 | 50% |  |  | 
7 | CN1CC(=O)N(CC(F)(F)F)N=C1c1ccccc1 [Compound 34] | 0 | 75 | 0% |  |  |  |  |  |  |  | 
8 | O=C1CNC(c2ccc(Cl)cc2)=NN1CC(F)(F)F [Compound 4, 1-(2,2,2-trifluoroethyl)-3-(4-chlorophenyl)-4,5-dihydro-1,2,4-triazin-6-one] | 75 | 0 |  |  |  |  |  |  | 50% | 99% | 
9 | CCC#CCn1nc(-c2ccc(Cl)cc2)ncc1=O [Compound 8, 1-(2-pentynyl)-3-(4-chlorophenyl)-1,2,4-triazin-6-one] | 0 | 0 |  |  |  |  |  |  | 90% | 99% | 
10 | O=c1cnc(-c2cc(Cl)cc(Cl)c2)nn1CC(F)(F)F [Compound 248] |  |  |  | 80 percent control | 100 percent control | 0 | 0 | 100% |  |  | 
11 | C=CCn1nc(-c2ccc(Cl)cc2)ncc1=O [Compound 236] | 0 | 100 | 100% | 90 percent control | 99 percent control |  |  |  |  |  | 
12 | CCCSC1NC(c2ccc(Cl)cc2)=NN(CC(F)(F)F)C1=O (stereo not shown) [Compound 19, 1-(2,2,2-trifluoroethyl)-3-(4-chlorophenyl)-5-propylthio-4,5-dihydro-1,2,4-triazin-6-one] |  |  |  |  |  | 0 | 100 |  | 75% | 100% | 
13 | CCCCCn1nc(-c2ccc(Cl)cc2)ncc1=O [Compound 234] | 0 | 0 | 100% | 80 percent control | 100 percent control |  |  |  |  |  | 
14 | O=c1cnc(-c2cccc(Cl)c2)nn1CC(F)(F)F [Compound 245] | 100 | 100 | 100% | 0 percent control | 99 percent control |  |  |  |  |  | 
15 | CN1N=C(c2ccc(Cl)cc2)NCC1=O [Compound 27] | 0 | 75 | 0% | 99 percent control | 80 percent control |  |  |  |  |  | 
16 | Cn1nc(-c2ccc(Cl)cc2)ncc1=O [Compound 238] | 0 | 75 | 100% | 90 percent control | 50 percent control |  |  |  |  |  | 
17 | Cc1c(Cl)cc(-c2ncc(=O)n(CC(F)(F)F)n2)cc1Cl [Compound 253] |  |  |  | 50 percent control | 100 percent control | 0 | 0 | 100% |  |  | 
18 | CCCCN1N=C(c2ccc(Cl)cc2)NCC1=O [Compound 50] |  |  |  | 80 percent control | 100 percent control | 0 | 0 | 75% |  |  | 
19 | O=c1cnc(-c2ccc(Cl)cc2)nn1C1CCCCC1 [Compound 256] |  |  |  |  | 95 percent control | 0 | 0 | 90% |  |  | 
20 | COC1NC(c2ccc(Cl)cc2)=NN(CC(F)(F)F)C1=O (stereo not shown) [Compound 26] | 0 | 50 | 0% | 95 percent control | 100 percent control |  |  |  |  |  | 
21 | O=C1CNC(c2ccccn2)=NN1CC(F)(F)F [Compound 52] |  |  |  | 0 percent control | 50 percent control | 0 | 0 | 100% |  |  | 
22 | CC(C)(C)N1N=C(c2ccc(Cl)cc2)NCC1=O [Compound 6, 1-t-Butyl-3-(4-chlorophenyl)-4,5-dihydro-1,2,4-triazin-6-one] | 0 | 100 |  |  |  |  |  |  | 50% | 90% | 
23 | O=c1cnc(-c2ccccc2)nn1CC(F)(F)F [Compound 7, 1-(2,2,2-trifluoroethyl)-3-phenyl-1,2,4-triazin-6-one] | 0 | 100 |  |  |  |  |  |  | 75% | 95% | 
24 | Cc1nc(-c2ccc(Cl)cc2)nn(CC(F)(F)F)c1=O [compound 239] | 0 | 75 | 0% |  |  |  |  |  |  |  | 
25 | O=C1CNC(c2ccc(Cl)cc2)=NN1 [Compound 5, 3-(4-Chlorophenyl)-4,5-dihydro-1,2,4-triazin-6-one] |  | 75 |  |  |  |  |  |  | 50% | 75% | 50
